From patent publication US20230146795A1, “ENHANCEMENT OF ANTI-TUMOR ACTIVITY OF SHP2 INHIBITOR PYRIMIDINONE IN COMBINATION WITH NOVEL CANCER MEDICINES IN CANCERS” (TAIHO PHARMACEUTICAL CO., LTD., priority 2020, published 2023)

Tests used:
Format in all cases: cell-based
NCI-H358 = assay: Anti-proliferation assay (CellTiter-Glo 2.0), combination index, NCI-H358
In short: (§1)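 Cells were seeded at 500 cells/well in medium with 10% FBS and exposed to agents at 8 concentrations including 0 nM, for 3 days at 37° C under 5% CO2. Survival was read by CellTiter-Glo 2.0 luminescence, and combination index was determined at each combined concentration.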

NCI-H23 = assay: Anti-proliferation assay (CellTiter-Glo 2.0), combination index, NCI-H23
Procedure: (§2) Cell lines were obtained from ATCC or Health Science Research Resources Bank.
Each cell lines were collected by ordinary method, then suspended in indicated medium containing 10% fetal bovine serum in table 3. The number of cells seeded per well was set to 500 cells/20 μL. […] The concentration of each anti-cancer reagents set to 8 concentrations including 0 nM. After adding the medicine to the cells, the cells were further incubated at 37° C. for 3 days under 5% CO2. Cell survival rates were calculated by adding 20 μL of CellTiter-Glo(registered trademark) 2. 0 (Promega) solution to each well, incubating the cells at room temperature for 10 minutes, and then measuring the chemiluminescence intensity of each well using a plate reader (ARVO).
(§3) A combination index (CI) value at each combined concentration of the medicines was determined.

RT4 = assay: Anti-proliferation assay (CellTiter-Glo 2.0), combination index, RT4
In short: as §1

MV-4-11 = assay: Anti-proliferation assay (CellTiter-Glo 2.0), combination index, MV-4-11
Procedure: as §2
(§4) 384 well culture plate (781086, Greiner Bio-One International) was used for cell survival rate measurement assay. Each cell lines were collected by ordinary method, then suspended in indicated medium containing 10% fetal bovine serum in table 3. The number of cells seeded per well was set to 500 cells/20 μL. After incubation at 37° C. for 24 hours under 5% CO2, Compound 1 and additional compound having an antitumor effect or a vehicle (DMSO) was added to each well by using D300e Digital Dispenser (Tecan). The concentration of Compound 1 was set to 10 concentrations. The concentration of each anti-cancer reagents set to 8 concentrations including 0 nM. After adding the medicine to the cells, the cells were further incubated at 37° C. for 3 days under 5% CO2. Cell survival rates were calculated by adding 20 μL of CellTiter-Glo(registered trademark) 2. 0 (Promega) solution to each well, incubating the cells at room temperature for 10 minutes, and then measuring the chemiluminescence intensity of each well using a plate reader (ARVO).
as §3

MKN45 = assay: Anti-proliferation assay (CellTiter-Glo 2.0), combination index, MKN45
In short: as §1

RMG-I = assay: Anti-proliferation assay (CellTiter-Glo 2.0), combination index, RMG-I; details: for Description (combinatory effect by CI): Compound 1:combination drug molar ratio 1:9
Procedure: as §2, §4, §3

[1] = Compound 1 41.2 + combination drug 41.2 nmol/L (1:1)
[2] = Compound 1 123 + combination drug 123 nmol/L (1:1)
[3] = Compound 1 370 + combination drug 370 nmol/L (1:1)
[4] = Compound 1 1110 + combination drug 1110 nmol/L (1:1)
[5] = Compound 1 3330 + combination drug 3330 nmol/L (1:1)
[6] = Compound 1 123 + combination drug 370 nmol/L (1:3)
[7] = Compound 1 370 + combination drug 1110 nmol/L (1:3)
[8] = Compound 1 1110 + combination drug 3330 nmol/L (1:3)
[9] = Compound 1 3330 + combination drug 10000 nmol/L (1:3)
[10] = Compound 1:combination drug molar ratio 1:3
[11] = Compound 1 123 + combination drug 10000 nmol/L (1:81)
[12] = Compound 1:combination drug molar ratio 1:81
[13] = Compound 1 13.7 + combination drug 370 nmol/L (1:27)
[14] = Compound 1 41.2 + combination drug 1110 nmol/L (1:27)
[15] = Compound 1 123 + combination drug 333 nmol/L (1:2.7)
[16] = Compound 1 370 + combination drug 1000 nmol/L (1:2.7)
[17] = Compound 1 4.57 + combination drug 1.37 nmol/L (1:0.3)
[18] = Compound 1 13.7 + combination drug 4.12 nmol/L (1:0.3)
[19] = Compound 1 41.2 + combination drug 12.3 nmol/L (1:0.3)
[20] = Compound 1 123 + combination drug 37.0 nmol/L (1:0.3)
[21] = Compound 1 370 + combination drug 111 nmol/L (1:0.3)
[22] = Compound 1 4.57 + combination drug 123 nmol/L (1:27)
[23] = Compound 1 370 + combination drug 10000 nmol/L (1:27)
[24] = Compound 1:combination drug molar ratio 1:27
[25] = Compound 1 41.2 + combination drug 3330 nmol/L (1:81)
[26] = Compound 1 13.7 + combination drug 41.2 nmol/L (1:3)
[27] = Compound 1 41.2 + combination drug 123 nmol/L (1:3)
[28] = Compound 1 13.7 + combination drug 123 nmol/L (1:9)
[29] = Compound 1 41.2 + combination drug 370 nmol/L (1:9)
[30] = Compound 1 123 + combination drug 1110 nmol/L (1:9)
[31] = Compound 1 41.2 nmol/L + Palbociclib 1110 nmol/L, molar ratio 1:27
[32] = Compound 1 123 nmol/L + Palbociclib 3330 nmol/L, molar ratio 1:27
[33] = Compound 1 370 nmol/L + Palbociclib 10000 nmol/L, molar ratio 1:27
[34] = Compound 1 1.52 nmol/L + Palbociclib 123 nmol/L, molar ratio 1:81
[35] = Compound 1 13.7 nmol/L + Palbociclib 1110 nmol/L, molar ratio 1:81
[36] = Compound 1 41.2 nmol/L + Palbociclib 3330 nmol/L, molar ratio 1:81
[37] = Compound 1 123 nmol/L + Palbociclib 10000 nmol/L, molar ratio 1:81
[38] = Compound 1 370 + combination drug 3330 nmol/L (1:9)
[39] = Compound 1 1110 + combination drug 10000 nmol/L (1:9)
[40] = Compound 1 123 + combination drug 3330 nmol/L (1:27)
[41] = Compound 1 4.57 + combination drug 370 nmol/L (1:81)
[42] = Compound 1 13.7 + combination drug 1110 nmol/L (1:81)

## CN(C)C/C=C/C(=O)Nc1cc2c(Nc3ccc(F)c(Cl)c3)ncnc2cc1O[C@H]1CCOC1 [Afatinib]
NCI-H358; [1]
  CI: 0.143
  Fa: 0.4605
NCI-H358; [2]
  CI: 0.264
  Fa: 0.5395
NCI-H358; [3]
  CI: 0.426
  Fa: 0.6382
NCI-H358; [4]
  CI: 0.686
  Fa: 0.7270
NCI-H358; [5]
  CI: 0.526
  Fa: 0.8696
NCI-H23; [6]
  CI: 0.776
  Fa: 0.1325
NCI-H23; [7]
  CI: 0.397
  Fa: 0.3961
NCI-H23; [8]
  CI: 0.400
  Fa: 0.8058
NCI-H23; [9]
  CI: 0.471
  Fa: 0.9563
NCI-H23; [10]
  Description (combinatory effect by CI): Synergy (0.3-0.7)
RT4; [11]
  CI: 0.471
  Fa: 0.9986
RT4; [12]
  Description (combinatory effect by CI): Synergy (0.3-0.7)
MV-4-11; [13]
  Fa: 0.6791
MV-4-11; [14]
  Fa: 0.9244

## C[C@@H](Oc1cc(-c2cnn(C3CCNCC3)c2)cnc1N)c1c(Cl)ccc(F)c1Cl [Crizotinib]
NCI-H23; [8]
  CI: 0.939
  Fa: 0.5445
NCI-H23; [9]
  CI: 0.765
  Fa: 0.8672

## CCc1nc(C(N)=O)c(Nc2ccc(N3CCC(N4CCN(C)CC4)CC3)c(OC)c2)nc1NC1CCOCC1 [Gilteritinib]
NCI-H23; [15]
  CI: 0.540
  Fa: 0.3005
NCI-H23; [16]
  CI: 0.666
  Fa: 0.6542
NCI-H23; Compound 1:combination drug molar ratio 1:2.7
  Description (combinatory effect by CI): Synergy (0.3-0.7)
MV-4-11; [17]
  CI: 0.817
  Fa: 0.5753
MV-4-11; [18]
  CI: 0.235
  Fa: 0.8986
MV-4-11; [19]
  CI: 0.189
  Fa: 0.9647
MV-4-11; [20]
  CI: 0.354
  Fa: 0.9763
MV-4-11; [21]
  CI: 0.862
  Fa: 0.9802

## COC(=O)c1ccc2c(c1)NC(=O)/C2=C(\Nc1ccc(N(C)C(=O)CN2CCN(C)CC2)cc1)c1ccccc1 [Nintedanib]
NCI-H358; [22]
  CI: 0.837
  Fa: 0.0649
NCI-H358; [13]
  CI: 0.576
  Fa: 0.1639
NCI-H358; [14]
  CI: 0.580
  Fa: 0.3485
NCI-H358; [23]
  CI: 0.858
  Fa: 0.9756
NCI-H358; [24]
  Description (combinatory effect by CI): Synergy (0.3-0.7)
MKN45; [25]
  CI: 0.925
  Fa: 0.5044
MKN45; [11]
  CI: 0.418
  Fa: 0.8817
MKN45; [12]
  Description (combinatory effect by CI): Synergy (0.3-0.7)
MV-4-11; [26]
  CI: 0.479
  Fa: 0.7111
MV-4-11; [27]
  CI: 0.370
  Fa: 0.9278
MV-4-11; [6]
  CI: 0.706
  Fa: 0.9603
MV-4-11; [7]
  CI: 0.617
  Fa: 0.9933
MV-4-11; [8]
  CI: 0.770
  Fa: 0.9982
MV-4-11; [10]
  Description (combinatory effect by CI): Synergy (0.3-0.7)
RMG-I; [28]
  CI: 0.772
  Fa: 0.2678
RMG-I; [29]
  CI: 0.477
  Fa: 0.4576
RMG-I; [30]
  CI: 0.683
  Fa: 0.6821
RMG-I
  Description (combinatory effect by CI): Synergy (0.3-0.7)

## CC(=O)c1c(C)c2cnc(Nc3ccc(N4CCNCC4)cn3)nc2n(C2CCCC2)c1=O [Palbociclib]
NCI-H358; [31]
  CI: 0.774
  Fa: 0.1141
NCI-H358; [32]
  CI: 0.695
  Fa: 0.2564
NCI-H358; [33]
  CI: 0.833
  Fa: 0.4277
MV-4-11; [34]
  CI: 0.827
  Fa: 0.1698
MV-4-11; [35]
  CI: 0.520
  Fa: 0.6523
MV-4-11; [36]
  CI: 0.699
  Fa: 0.7944
MV-4-11; [37]
  CI: 0.565
  Fa: 0.9297
MV-4-11; combination effect, Compound 1 + Palbociclib, molar ratio 1:81
  Description: Synergy (0.3-0.7)
RMG-I; [35]
  CI: 0.411
  Fa: 0.3192
RMG-I; [36]
  CI: 0.271
  Fa: 0.4189
RMG-I; [37]
  CI: 0.225
  Fa: 0.5120

## COc1cc2c(Nc3ccc(Br)cc3F)ncnc2cc1OCC1CCN(C)CC1 [Vandetanib]
NCI-H358; [29]
  CI: 0.322
  Fa: 0.2982
NCI-H358; [30]
  CI: 0.300
  Fa: 0.5211
NCI-H358; [38]
  CI: 0.589
  Fa: 0.6208
NCI-H358; [39]
  CI: 0.733
  Fa: 0.8142
NCI-H358; Compound 1:combination drug molar ratio 1:9
  Description (combinatory effect by CI): Synergy (0.3-0.7)
RT4; [13]
  CI: 0.486
  Fa: 0.3118
RT4; [14]
  CI: 0.444
  Fa: 0.5143
RT4; [40]
  CI: 0.570
  Fa: 0.6645
RT4; [23]
  CI: 0.541
  Fa: 0.8261
RT4; [24]
  Description (combinatory effect by CI): Synergy (0.3-0.7)
MV-4-11; [41]
  CI: 0.912
  Fa: 0.5454
MV-4-11; [42]
  CI: 0.557
  Fa: 0.8322
MV-4-11; [25]
  CI: 0.503
  Fa: 0.9448
MV-4-11; [11]
  CI: 0.294
  Fa: 0.9916
RMG-I; [29]
  CI: 0.428
  Fa: 0.4951
RMG-I; [30]
  CI: 0.938
  Fa: 0.5602
RMG-I
  Description (combinatory effect by CI): Synergy (0.3-0.7)
